Earlier results, collected in patent US20020151447A1, “Reduced toxicity 1-bromopropane cleaning agent production process” (POLYMER SOLVENTS, INC., priority 1997, published 2002).

Experiments:
[1] = 8 hour workday
mammals = details: in vivo

For `CCCBr` [1-bromopropane], the “workplace exposure limit for handlers” value [1] is listed as 100 ppm and the toxicity to mammals (mammals) is listed as “relatively low toxicity”.
